The NIST ThermoML archive (doi:10.1016/j.jct.2019.04.017)
Where “and” joins values, the source holds several entries; their conditions need not be identical. Identical values can stand only once. Numbers after ± are expanded uncertainties.

Assay: xn = mol fraction of the nth substance listed
Conditions: 96 kPa, Liquid; for viscosity: Cone and plate viscometry; for electrical conductivity: Frequency=0.001 MHz, Alternating current cell with electrodes

C1CCC2=NCCCN2CC1 [1,8-diaza-7-bicyclo[5.4.0]undecene] + OCC(O)CO
Conditions	electrical conductivity, 288.1 K [S/m]	electrical conductivity, 293.1 K [S/m]	electrical conductivity, 298.1 K [S/m]	electrical conductivity, 303.1 K [S/m]	electrical conductivity, 308.1 K [S/m]	viscosity, 288.1 K	viscosity, 298.1 K [mPa·s]	viscosity, 308.1 K
x1 = 0.0501	–	–	–	–	–	3852 ± 840 mPa·s	1458 ± 210	626.5 ± 66 mPa·s
x1 = 0.0502	0.0181 ± 0.00072	0.0243 ± 0.00096	0.0327 ± 0.0013	0.0423 ± 0.0017	0.0534 ± 0.0021	–	–	–
x1 = 0.0909	–	–	–	–	–	5116 ± 1300 mPa·s	1802 ± 280	759.4 ± 84 mPa·s
x1 = 0.0914	0.0194 ± 0.00077	0.0272 ± 0.0011	0.0371 ± 0.0015	0.0478 ± 0.0019	0.062 ± 0.0025	–	–	–
x1 = 0.1	0.0187 ± 0.00083	–	0.0352 ± 0.0016	–	0.0592 ± 0.0026	5432 ± 1400 mPa·s	1876 ± 290	784.2 ± 88 mPa·s
x1 = 0.1115	0.0182 ± 0.00072	0.0249 ± 0.00099	0.0339 ± 0.0013	0.044 ± 0.0017	–	–	–	–
x1 = 0.1266	0.0169 ± 0.00067	0.0238 ± 0.00094	0.0317 ± 0.0013	0.0433 ± 0.0017	–	–	–	–
x1 = 0.1667	–	–	–	–	–	5975 ± 1600 mPa·s	2092 ± 340	818.8 ± 93 mPa·s
x1 = 0.1672	0.0141 ± 0.00056	0.0208 ± 0.00082	0.0283 ± 0.0011	0.0374 ± 0.0015	–	–	–	–
x1 = 0.2	0.0116 ± 0.00046	0.0167 ± 0.00066	0.023 ± 0.00091	0.031 ± 0.0012	–	6100 ± 1600 mPa·s and 6110 ± 1700 mPa·s	2107 ± 340	833.7 ± 95 mPa·s and 835.4 ± 100 mPa·s
x1 = 0.2153	–	–	–	–	–	6150 ± 1600 mPa·s	2175 ± 360	838.8 ± 96 mPa·s
x1 = 0.2306	–	–	–	–	–	6006 ± 1600 mPa·s	2087 ± 340	828.5 ± 94 mPa·s
x1 = 0.2504	0.00817 ± 0.00032	0.0117 ± 0.00046	0.0161 ± 0.00064	0.0204 ± 0.00081	–	–	–	–
x1 = 0.287	0.00592 ± 0.00023	0.00833 ± 0.00033	0.0112 ± 0.00045	0.015 ± 0.0006	–	–	–	–
x1 = 0.3059	–	–	–	–	–	5665 ± 1500 mPa·s	1988 ± 320	771.5 ± 86 mPa·s
x1 = 0.3333	–	–	–	–	–	5582 ± 1400 mPa·s	1968 ± 310	742.2 ± 82 mPa·s
x1 = 0.3338	0.00385 ± 0.00015	0.00534 ± 0.00021	0.00723 ± 0.00029	0.0103 ± 0.00041	–	–	–	–
x1 = 0.4003	0.00156 ± 6.2e-05	0.00223 ± 8.8e-05	0.00307 ± 0.00012	0.00416 ± 0.00016	–	–	–	–
x1 = 0.4011	–	–	–	–	–	5043 ± 1200 mPa·s	1705 ± 260	664.5 ± 71 mPa·s
x1 = 0.5	0.000299 ± 1.2e-05	0.000456 ± 1.8e-05	0.000675 ± 2.7e-05	0.000965 ± 3.8e-05	–	4049 ± 910 mPa·s	1315 ± 180	503 ± 49 mPa·s
x1 = 0.5632	–	–	–	–	–	3138 ± 630 mPa·s	1017 ± 130	393.5 ± 36 mPa·s
x1 = 0.5656	0.000105 ± 4.2e-06	0.00016 ± 6.3e-06	0.000249 ± 9.9e-06	0.000356 ± 1.4e-05	–	–	–	–
x1 = 0.625	–	–	–	–	–	1906 ± 310 mPa·s	616.2 ± 66	224.2 ± 18 mPa·s
x1 = 0.6255	4.63e-05 ± 1.8e-06	7.22e-05 ± 2.9e-06	0.000122 ± 4.8e-06	0.000176 ± 7e-06	–	–	–	–
x1 = 0.75	8.75e-05 ± 3.9e-06	–	0.000189 ± 8.4e-06	–	–	468.1 ± 48 mPa·s	186.1 ± 15	84.66 ± 5.9 mPa·s
x1 = 0.753	8.75e-05 ± 3.5e-06	0.000125 ± 5e-06	0.000189 ± 7.5e-06	0.000254 ± 1e-05	–	–	–	–
x1 = 0.8333	0.000221 ± 9.8e-06	–	0.000405 ± 1.8e-05	–	–	119.1 ± 8.8 mPa·s	51 ± 3.4	33.4 ± 2.2 mPa·s
x1 = 0.8334	0.000221 ± 8.8e-06	0.000314 ± 1.3e-05	0.000405 ± 1.6e-05	0.000526 ± 2.1e-05	–	–	–	–
x1 = 0.9094	0.000432 ± 1.7e-05	0.000514 ± 2e-05	0.000603 ± 2.4e-05	0.000695 ± 2.8e-05	–	–	–	–
x1 = 0.95	0.000486 ± 1.9e-05	0.000561 ± 2.2e-05	0.000638 ± 2.5e-05	0.000702 ± 2.8e-05	–	–	–	–
x1 = 0.975	0.000452 ± 1.8e-05	0.000511 ± 2e-05	0.000561 ± 2.2e-05	0.000615 ± 2.4e-05	–	–	–	–
x1 = 1	0.000222 ± 8.8e-06	0.000241 ± 9.5e-06	0.000267 ± 1.1e-05	0.000297 ± 1.2e-05	–	15.35 ± 1 mPa·s	10.32 ± 0.67	8.17 ± 0.53 mPa·s
